Measurements: ChEMBL document CHEMBL1240454, “1,3-Dioxolane-based ligands incorporating a lactam or imide moiety: structure-affinity/activity relationship at alpha1-adrenoceptor subtypes and at 5-HT1A receptors” (Eur J Med Chem, 2010)

Experiments:
[1] = biological target: T1, Alpha-1B adrenergic receptor (Rattus norvegicus) (UniProt P15823); assay: Antagonist activity at adrenergic Alpha-1B receptor in Wistar rat spleen assessed as inhibition of […]-induced tissue contraction treated 30 mins before […] challenge; format: functional, tissue-based
T1 sequence (whole entry): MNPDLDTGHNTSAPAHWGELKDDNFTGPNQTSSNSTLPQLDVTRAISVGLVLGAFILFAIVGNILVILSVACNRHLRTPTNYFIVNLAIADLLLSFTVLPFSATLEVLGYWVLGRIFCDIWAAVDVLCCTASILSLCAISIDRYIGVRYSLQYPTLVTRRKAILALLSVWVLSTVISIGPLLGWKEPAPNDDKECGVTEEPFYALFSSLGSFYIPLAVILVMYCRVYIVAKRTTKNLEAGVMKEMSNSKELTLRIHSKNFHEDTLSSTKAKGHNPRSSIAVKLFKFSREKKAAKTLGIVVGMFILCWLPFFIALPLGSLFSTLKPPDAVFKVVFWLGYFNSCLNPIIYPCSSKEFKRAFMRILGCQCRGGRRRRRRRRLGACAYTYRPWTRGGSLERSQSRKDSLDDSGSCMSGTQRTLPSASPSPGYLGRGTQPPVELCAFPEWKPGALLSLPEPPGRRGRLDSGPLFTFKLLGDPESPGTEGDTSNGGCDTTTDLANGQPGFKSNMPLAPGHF

[2] = biological target: T2, 5-hydroxytryptamine receptor 1A (Homo sapiens) (UniProt P08908); assay: Agonist activity at human cloned 5HT1A receptor expressed in human HeLa cells assessed as stimulation of [35S]GTPgammaS binding after 20 mins by liquid scintillation counting; format: functional, cell-based
T2 sequence (whole entry): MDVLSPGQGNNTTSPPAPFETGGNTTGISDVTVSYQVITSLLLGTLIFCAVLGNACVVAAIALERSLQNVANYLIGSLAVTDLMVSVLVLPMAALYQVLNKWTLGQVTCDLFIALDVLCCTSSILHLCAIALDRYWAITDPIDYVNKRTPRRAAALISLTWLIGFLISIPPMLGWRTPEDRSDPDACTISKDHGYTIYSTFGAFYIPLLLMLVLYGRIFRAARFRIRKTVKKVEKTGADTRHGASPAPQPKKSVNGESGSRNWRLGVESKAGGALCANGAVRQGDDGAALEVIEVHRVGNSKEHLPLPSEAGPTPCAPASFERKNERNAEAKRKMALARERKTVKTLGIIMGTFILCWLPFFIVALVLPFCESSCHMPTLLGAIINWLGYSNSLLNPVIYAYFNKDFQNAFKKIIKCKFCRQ

[3] = biological target: T2, 5-hydroxytryptamine receptor 1A (Homo sapiens); assay: Agonist activity at human cloned 5HT1A receptor expressed in human HeLa cells assessed as stimulation of [35S]GTPgammaS binding after 20 mins by liquid scintillation counting relative to maximal 5HT response; format: functional, cell-based

SMILES: COc1ccccc1N1CCN(CCN2C(=O)CC3(CCCC3)CC2=O)CC1
- pKb [1]: 7.48
- pD2 [2]: 7.83
- Emax [3]: 100%

SMILES: CCCN(CCC)C1CCc2cccc(O)c2C1 (stereo not given)
- pD2 [2]: 9.27
- Emax [3]: 26%
